Measurements reported in patent EP0137900B1, “Bis-platinum complexes as antitumor agents” (priority 1983, dated 1985).

Experiments:
[1] = Solubility (water, organic solvents, 1% NaHCO3, basic solutions); conditions: result in words
[2] = 1% nahco3
[3] = test system: murine tumor line L1210 leukemia; test: Antitumor screen against murine L1210 leukemia implanted in mice; format: in vivo, CDF1 mice; conditions: for Percent Increase in Lifespan: start 24 hours after inoculation of 1 x 10^6 L1210 cells in CDF1 mice; for toxic dose: L1210-bearing mice
[4] = in water; cited from earlier work

Substance: 5,5'-carbonylbistrimellito bis [(1,2-diaminocyclohexane)platinum(II)1 [Example 6]
- solubility in 1% NaHC03 solution [1]: dissolves readily

Substance: benzenepentacarboxylatobis[(1,2-diaminocyclohexane) platinum(ll)] [Example 1]
- solubility [2]: greater than 10 mg/ml
- Percent Increase in Lifespan ([3]; Dose 2.5 mg/kg, Daily x 7, intraperitoneally, in 1% NaHCO3): 87%
- Percent Increase in Lifespan ([3]; Dose 2.5 mg/kg, schedule 'Drugs 1, 5 and 9' [sic], intraperitoneally): 21%
- Percent Increase in Lifespan ([3]; Dose 5.0 mg/kg, Daily x 7, intraperitoneally, in 1% NaHCO3): 117%
- Percent Increase in Lifespan ([3]; Dose 5.0 mg/kg, schedule 'Drugs 1, 5 and 9' [sic], intraperitoneally): 43%
- Percent Increase in Lifespan ([3]; Dose 10.0 mg/kg, Daily x 7, intraperitoneally, in 1% NaHCO3): 61%
- Percent Increase in Lifespan ([3]; Dose 10.0 mg/kg, schedule 'Drugs 1, 5 and 9' [sic], intraperitoneally): 135%
- Percent Increase in Lifespan ([3]; Dose 20.0 mg/kg, schedule 'Drugs 1, 5 and 9' [sic], intraperitoneally): 193%
- toxic dose ([3]; daily x 7 schedule): 20 mg/kg
- toxic dose ([3]; days 1, 5, 9 schedule): 40 mg/kg
- activity against the experimental murine tumor line L1210 leukemia ([3]; dose range 2.5-20 mg/kg, result in words): active

Substance: cis-[Pt(NH3)2Cl2] [Cisplatin]
- water solubility [4]: about 1 mg/ml
